Results: ChEMBL document CHEMBL3044687, “Microwave-assisted synthesis of some novel and potent antibacterial and antifungal compounds with biological screening” (2012)

Assays:
Format in all cases: functional
Conditions in all cases: read-out: DIZ
Staphylococcus aureus [1] = experiment: Antibacterial activity against Staphylococcus aureus at 100 ug/ml after 24 hr by disk diffusion method
Pseudomonas aeruginosa [2] = experiment: Antibacterial activity against Pseudomonas aeruginosa at 50 ug/ml after 24 hr by disk diffusion method
Pseudomonas aeruginosa [3] = experiment: Antibacterial activity against Pseudomonas aeruginosa at 100 ug/ml after 24 hr by disk diffusion method
Candida albicans [4] = experiment: Antifungal activity against Candida albicans at 50 ug/ml after 48 hr by disk diffusion method
Aspergillus niger [5] = experiment: Antifungal activity against Aspergillus niger at 200 ug/ml after 48 hr by disk diffusion method
Aspergillus niger [6] = experiment: Antifungal activity against Aspergillus niger at 50 ug/ml after 48 hr by disk diffusion method
Aspergillus niger [7] = experiment: Antifungal activity against Aspergillus niger at 100 ug/ml after 48 hr by disk diffusion method
Escherichia coli [8] = experiment: Antibacterial activity against Escherichia coli at 100 ug/ml after 24 hr by disk diffusion method
Pseudomonas aeruginosa [9] = experiment: Antibacterial activity against Pseudomonas aeruginosa at 200 ug/ml after 24 hr by disk diffusion method
Staphylococcus aureus [10] = experiment: Antibacterial activity against Staphylococcus aureus at 200 ug/ml after 24 hr by disk diffusion method
Bacillus subtilis [11] = experiment: Antibacterial activity against Bacillus subtilis at 200 ug/ml after 24 hr by disk diffusion method
Bacillus subtilis [12] = experiment: Antibacterial activity against Bacillus subtilis at 100 ug/ml after 24 hr by disk diffusion method
Escherichia coli [13] = experiment: Antibacterial activity against Escherichia coli at 200 ug/ml after 24 hr by disk diffusion method
Escherichia coli [14] = experiment: Antibacterial activity against Escherichia coli at 50 ug/ml after 24 hr by disk diffusion method
Candida albicans [15] = experiment: Antifungal activity against Candida albicans at 200 ug/ml after 48 hr by disk diffusion method
Bacillus subtilis [16] = experiment: Antibacterial activity against Bacillus subtilis at 50 ug/ml after 24 hr by disk diffusion method
Candida albicans [17] = experiment: Antifungal activity against Candida albicans at 100 ug/ml after 48 hr by disk diffusion method
Staphylococcus aureus [18] = experiment: Antibacterial activity against Staphylococcus aureus at 50 ug/ml after 24 hr by disk diffusion method

Row | Compound | zone of inhibition at 100 µg/mL (Staphylococcus aureus [1]) [mm] | zone of inhibition at 50 µg/mL (Pseudomonas aeruginosa [2]) [mm] | zone of inhibition at 100 µg/mL (Pseudomonas aeruginosa [3]) [mm] | zone of inhibition at 50 µg/mL (Candida albicans [4]) [mm] | zone of inhibition at 200 µg/mL (Aspergillus niger [5]) [mm] | zone of inhibition at 50 µg/mL (Aspergillus niger [6]) [mm] | zone of inhibition at 100 µg/mL (Aspergillus niger [7]) [mm] | zone of inhibition at 100 µg/mL (Escherichia coli [8]) [mm] | zone of inhibition at 200 µg/mL (Pseudomonas aeruginosa [9]) [mm] | zone of inhibition at 200 µg/mL (Staphylococcus aureus [10]) [mm] | zone of inhibition at 200 µg/mL (Bacillus subtilis [11]) [mm] | zone of inhibition at 100 µg/mL (Bacillus subtilis [12]) [mm] | zone of inhibition at 200 µg/mL (Escherichia coli [13]) [mm] | zone of inhibition at 50 µg/mL (Escherichia coli [14]) [mm] | zone of inhibition at 200 µg/mL (Candida albicans [15]) [mm] | zone of inhibition at 50 µg/mL (Bacillus subtilis [16]) [mm] | zone of inhibition at 100 µg/mL (Candida albicans [17]) [mm] | zone of inhibition at 50 µg/mL (Staphylococcus aureus [18]) [mm]
1 | CN1CCN(CN2C(=O)N(c3ccccc3)C(=O)C2(c2ccccc2)c2ccccc2)CC1 | 10 | 4 | 6 | 12 | 12 | 11 | 12 | 13 | 10 | 18 | 14 | 5 | 16 | 6 | 13 | 4 | 13 | 6
2 | O=C1N(c2ccccc2)C(=O)C(c2ccccc2)(c2ccccc2)N1Cn1nnc2ccccc21 | 10 | 6 | 10 | 11 | 11 | 11 | 11 | 8 | 12 | 14 | 18 | 12 | 14 | 3 | 13 | 5 | 12 | 4
3 | O=C1N(c2ccccc2)C(=O)C(c2ccccc2)(c2ccccc2)N1Cn1ccnc1 | 9 | 5 | 9 | 10 | 13 | 10 | 12 | 14 | 18 | 18 | 13 | 11 | 19 | 5 | 13 | 5 | 11 | 4
4 | O=C1N(c2ccccc2)C(=O)C(c2ccccc2)(c2ccccc2)N1Cn1cnc2ccccc21 | 10 | 4 | 8 | 16 | 32 | 16 | 19 | 12 | 12 | 12 | 18 | 13 | 18 | 6 | 32 | 5 | 24 | 5
5 | O=C1c2ccccc2C(=O)N1CN1C(=O)N(c2ccccc2)C(=O)C1(c1ccccc1)c1ccccc1 | 6 | 5 | 8 | 15 | 16 | 12 | 15 | 12 | 10 | 9 | 14 | 10 | 20 | 5 | 20 | 4 | 16 | 4
6 | O=C1N(c2ccccc2)C(=O)C(c2ccccc2)(c2ccccc2)N1CNc1nc2ccccc2s1 | 10 | 7 | 12 | 13 | 20 | 16 | 16 | 15 | 20 | 17 | 18 | 10 | 17 | 6 | 20 | 7 | 15 | 5
7 | O=C1N(c2ccccc2)C(=O)C(c2ccccc2)(c2ccccc2)N1CNc1nccs1 | 10 | 4 | 12 | 11 | 11 | 11 | 11 | 10 | 18 | 18 | 13 |  | 18 | 5 | 13 | 5 | 12 | 4
8 | CCN(CC)CN1C(=O)N(c2ccccc2)C(=O)C1(c1ccccc1)c1ccccc1 | 10 | 5 | 9 | 9 | 12 | 8 | 10 | 13 | 14 | 14 | 13 | 9 | 18 | 3 | 11 | 3 | 10 | 5
9 | CN(C)CN1C(=O)N(c2ccccc2)C(=O)C1(c1ccccc1)c1ccccc1 | 9 | 6 | 10 | 16 | 18 | 16 | 18 | 13 | 14 | 12 | 18 | 10 | 18 | 5 | 19 | 5 | 18 | 4
10 | CN(C)CN1C(=O)NC(c2ccccc2)(c2ccccc2)C1=O | 9 | 6 | 10 | 16 | 18 | 16 | 18 | 13 | 17 | 12 | 22 | 10 | 22 | 5 | 19 | 5 | 18 | 4
11 | O=C1N(c2ccccc2)C(=O)C(c2ccccc2)(c2ccccc2)N1CN1CCOCC1 | 6 | 4 | 6 | 10 | 12 | 10 | 11 | 8 | 11 | 9 | 11 | 9 | 15 | 4 | 15 | 4 | 12 | 5
12 | CC1(C)S[C@@H]2[C@H](NC(=O)[C@H](N)c3ccccc3)C(=O)N2[C@H]1C(=O)O [AMPICILLIN] | 14 | 9 | 14 |  |  |  |  | 18 | 23 | 23 | 26 | 16 | 29 | 10 |  | 10 |  | 9
13 | COC1=CC(=O)C[C@@H](C)[C@]12Oc1c(Cl)c(OC)cc(OC)c1C2=O [GRISEOFULVIN] |  |  |  | 18 | 40 | 21 | 24 |  |  |  |  |  |  |  | 40 |  | 25 | 
